System: GDF8 signaling (p-SMAD-3 (Ser423/425))
Test: AlphaScreen SureFire SMAD3 (p-Ser423/425) assay, GDF8-stimulated cells (GDF pSMAD)
Assay type: cell-based
Conditions: MPC11; GDF8-stimulated; p-SMAD3 AlphaScreen; read-out: GDF pSMAD (MPC11) (inhibition of GDF8 signaling)

Row | Compound | IC50 [µM]
1 | Cc1cc(-c2ncccc2-c2ccc3ncc(C(=O)NC4CC5CCC(C4)N5C)n3c2)ccc1F (stereo not drawn) [compound 713, endo-6-(2-(4-Fluoro-3-methylphenyl)pyridin-3-yl)-N-(8-methyl-8-azabicyclo[3.2.1]octan-3-yl)imidazo[1,2-a]pyridine-3-carboxamide] | 10.2

Same assay, conditions: Mus musculus, MPC-11, GDF8-stimulated pSMAD3, MPC11; tested as the salt form given; read-out: GDF pSMAD (MPC11) (μM), inhibition of GDF8 signaling

Row | IC50 [µM] | Compound
2 | 9.34 | Cc1cc2ncnc(N)c2cc1-c1cccnc1-c1cc(Cl)ccc1F [compound 981, 6-(2-(5-chloro-2-fluorophenyl)pyridin-3-yl)-7-methylquinazolin-4-amine]
3 | 7.27 | Nc1ncnc2ccc(-c3cccnc3-c3ccccc3F)cc12 [compound 1003, 6-(2-(2-fluorophenyl)pyridin-3-yl)quinazolin-4-amine]
4 | 3.73 | Cc1cc2ncnc(N)c2cc1-c1cccnc1-c1ccc(F)c(Cl)c1 [compound 980, 6-(2-(3-chloro-4-fluorophenyl)pyridin-3-yl)-7-methylquinazolin-4-amine]
5 | 0.371 | Cc1ccc(Cl)cc1-c1ncccc1-c1ccc2ncsc2c1 [compound 1057]
6 | 0.956 | Cc1cc(-c2ncccc2-c2cc(C)c3ncnc(N)c3c2)ccc1F [compound 986, 6-(2-(4-fluoro-3-methylphenyl)pyridin-3-yl)-8-methylquinazolin-4-amine]
7 | 2.61 | Cc1cc(-c2ncccc2-c2ccc3ncnc(NCCC(N)=O)c3c2)ccc1F [compound 1029, 3-((6-(2-(4-fluoro-3-methylphenyl)pyridin-3-yl)quinazolin-4-yl)amino)propanamide]

Same assay, conditions: Mus musculus, MPC-11, MPC11; GDF8-stimulated; p-SMAD3 AlphaScreen; read-out: GDF pSMAD (MPC11) (inhibition of GDF8 signaling)

Row | Compound | IC50 [µM]
8 | Cc1cc(-c2ncc(-c3cn[nH]c3)cc2-c2ccc3ncsc3c2)ccc1F [compound 345, 6-(2-(4-Fluoro-3-methylphenyl)-5-(1H-pyrazol-4-yl)pyridin-3-yl)benzo[d]thiazole] | 4.83
9 | Cc1cc(-c2ncc(NC(=O)NC(C)C)cc2-c2ccc3c(cnn3C(=O)NC(C)C)c2)ccc1F [compound 215, 5-(2-(4-Fluoro-3-methylphenyl)-5-(3-isopropylureido)pyridin-3-yl)-N-isopropyl-1H-indazole-1-carboxamide] | 15.7
10 | Cc1cc(-c2ncccc2-c2ccc3[nH]nc(N)c3c2)ccc1F [compound 788, 5-(2-(4-Fluoro-3-methylphenyl)pyridin-3-yl)-1H-indazol-3-amine] | 4.04
11 | Fc1ccc(-c2ncccc2-c2ccc3ncsc3c2)cc1 [compound 659, 6-(2-(4-Fluorophenyl)pyridin-3-yl)benzo[d]thiazole] | 2.01
12 | Fc1ccc(-c2ncccc2-c2ccc3nccn3c2)cc1 [Compound 53, 6-(2-(4-Fluorophenyl)pyridin-3-yl)imidazo[1,2-a]pyridine] | 13.4
13 | COc1cc(NC(=O)n2ncc3cc(-c4cccnc4-c4ccc(F)c(C)c4)ccc32)cc(OC)c1OC [compound 630, 5-(2-(4-Fluoro-3-methylphenyl)pyridin-3-yl)-N-(3,4,5-trimethoxyphenyl)-1H-indazole-1-carboxamide] | 4.15
14 | Fc1ccc(-c2ncccc2-c2ccn3nccc3n2)c(F)c1Cl [compound 965, 5-(2-(3-Chloro-2,4-difluorophenyl)pyridin-3-yl)pyrazolo[1,5-a]pyrimidine] | 5.19
15 | Cc1cc(-c2ncccc2-c2ccc3ncc(N4CCCC4)n3c2)ccc1F [compound 561, 6-(2-(4-Fluoro-3-methylphenyl)pyridin-3-yl)-3-(pyrrolidin-1-yl)imidazo[1,2-a]pyridine] | 11
16 | Cc1cn2cc(-c3cccnc3-c3ccc(F)c(C)c3)ccc2n1 [compound 531, 6-(2-(4-Fluoro-3-methylphenyl)pyridin-3-yl)-2-methylimidazo[1,2-a]pyridine] | 11.2
17 | Cc1cc(-c2ncccc2-c2ccc3ncnn3c2C)ccc1F [compound 809, 6-(2-(4-Fluoro-3-methylphenyl)pyridin-3-yl)-5-methyl-[1,2,4]triazolo[1,5-a]pyridine] | 4
18 | Cc1cc(-c2ncc(NC(=O)CCN3CCOCC3)cc2-c2ccc3ncsc3c2)ccc1F [compound 312, N-(5-(Benzo[d]thiazol-6-yl)-6-(4-fluoro-3-methylphenyl)pyridin-3-yl)-3-morpholinopropanamide] | 7.54
19 | c1cc(-c2ncccc2-c2ccc3ncc(N4CCCC4)n3c2)cc(C2CC2)c1 [compound 563, 6-(2-(3-Cyclopropylphenyl)pyridin-3-yl)-3-(pyrrolidin-1-yl)imidazo[1,2-a]pyridine] | 5.2

Further lines, results first:

Row | IC50 [µM] | Compound
20 | 1.28 | c1cc(-c2ncccc2-c2ccc3ncnc(N4CCOCC4)c3c2)cc(C2CC2)c1 [compound 387, 4-(6-(2-(3-Cyclopropylphenyl)pyridin-3-yl)quinazolin-4-yl)morpholine]
21 | 1.83 | Cc1cc(-c2ncccc2-c2cc3cn[nH]c3cc2C)ccc1F [Compound 173, 5-(2-(4-Fluoro-3-methylphenyl)pyridin-3-yl)-6-methyl-1H-indazole]
22 | 1.69 | O=c1[nH]cnc2ccc(-c3cccnc3-c3ccc(F)c(Cl)c3)nc12 [compound 960, 6-(2-(3-Chloro-4-fluorophenyl)pyridin-3-yl)pyrido[3,2-d]pyrimidin-4(3H)-one]
23 | 0.273 | Cc1cc(-c2ncccc2-c2ccn3ncc(C(=O)NCCCN4CCOCC4)c3c2)ccc1F [compound 672, 5-(2-(4-Fluoro-3-methylphenyl)pyridin-3-yl)-N-(3-morpholinopropyl)pyrazolo[1,5-a]pyridine-3-carboxamide]
24 | 0.0686 | Nc1ncnc2ccc(-c3cccnc3-c3cc(Cl)ccc3F)cc12 [compound 449, 6-(2-(5-Chloro-2-fluorophenyl)pyridin-3-yl)quinazolin-4-amine]
25 | 1.79 | Oc1cccc(-c2ncccc2-c2cnc3[nH]ncc3c2)c1 [Compound 156, 3-(3-(1H-Pyrazolo[3,4-b]pyridin-5-yl)pyridin-2-yl)phenol]
26 | 1.67 | Cc1cc(-c2ncccc2-c2ccn3c(C(=O)NCCCn4ccnc4)ncc3c2)ccc1F [compound 277, N-(3-(1H-Imidazol-1-yl)propyl)-7-(2-(4-fluoro-3-methylphenyl)pyridin-3-yl)imidazo[1,5-a]pyridine-3-carboxamide]
27 | 0.306 | Cc1cc(-c2ncc(NCc3cnc4c(c3)ncn4C)cc2-c2ccc3ncsc3c2)ccc1F [compound 335, 5-(Benzo[d]thiazol-6-yl)-6-(4-fluoro-3-methylphenyl)-N-((3-methyl-3H-imidazo[4,5-b]pyridin-6-yl)methyl)pyridin-3-amine]
28 | 1.86 | Cc1cc(-c2ncccc2-c2ccc3ncc(C(=O)NC4CCOCC4)n3c2)ccc1F [compound 593, 6-(2-(4-Fluoro-3-methylphenyl)pyridin-3-yl)-N-(tetrahydro-2H-pyran-4-yl)imidazo[1,2-a]pyridine-3-carboxamide]
29 | 0.252 | CN1CCC(NC(=O)c2cnc3ccc(-c4cccnc4-c4ccc(F)c(Cl)c4)cn23)CC1 [compound 709, 6-(2-(3-Chloro-4-fluorophenyl)pyridin-3-yl)-N-(1-methylpiperidin-4-yl)imidazo[1,2-a]pyridine-3-carboxamide]
30 | 0.0725 | Nc1ncnc2ccc(-c3cccnc3-c3cccc(C4CC4)c3)cc12 [compound 411, 6-(2-(3-Cyclopropylphenyl)pyridin-3-yl)quinazolin-4-amine]
31 | 1.11 | Clc1ccc(Cl)c(-c2ncccc2-c2ccc3ncnn3c2)c1 [compound 771, 6-(2-(2,5-Dichlorophenyl)pyridin-3-yl)-[1,2,4]triazolo[1,5-a]pyridine]
32 | 0.175 | Cc1cccc(-c2ncccc2-c2ccc3ncc(C)n3c2)c1 [compound 528, 3-Methyl-6-(2-(m-Tolyl)pyridin-3-yl)imidazo[1,2-a]pyridine]
33 | 0.608 | CN(C)CCCOc1ncnc2ccc(-c3cccnc3-c3ccc(F)c(Cl)c3)cc12 [compound 435, 3-((6-(2-(3-Chloro-4-fluorophenyl)pyridin-3-yl)quinazolin-4-yl)oxy)-N,N-dimethylpropan-1-amine]
34 | 0.253 | Cc1cc(-c2ncc(NCc3cnc[nH]3)cc2-c2ccc3ncsc3c2)ccc1F [compound 322, N-((1H-Imidazol-5-yl)methyl)-5-(benzo[d]thiazol-6-yl)-6-(4-fluoro-3-methylphenyl)pyridin-3-amine]
35 | 0.674 | OCc1cnc2ccc(-c3cccnc3-c3cccc(C(F)(F)F)c3)cn12 [compound 568, (6-(2-(3-(Trifluoromethyl)phenyl)pyridin-3-yl)imidazo[1,2-a]pyridin-3-yl)methanol]
36 | 0.111 | c1cc(-c2ncccc2-c2ccc3ncccc3n2)cc(C2CC2)c1 [compound 537, 2-(2-(3-Cyclopropylphenyl)pyridin-3-yl)-1,5-naphthyridine]
37 | 0.59 | O=C(NCCCN1CCCC1=O)c1cnc2ccc(-c3cccnc3-c3cc(Cl)c(F)cc3F)cn12 [compound 730, 6-(2-(5-Chloro-2,4-difluorophenyl)pyridin-3-yl)-N-(3-(2-oxopyrrolidin-1-yl)propyl)imidazo[1,2-a]pyridine-3-carboxamide]
38 | 0.816 | Nc1ncnc2ccc(-c3cccnc3-c3ccc(F)c(F)c3)cc12 [compound 453, 6-(2-(3,4-Difluorophenyl)pyridin-3-yl)quinazolin-4-amine]
39 | 1.54 | Cc1cc(-c2ncccc2-c2cn3ccnc3cc2C)ccc1F [compound 808, 6-(2-(4-Fluoro-3-methylphenyl)pyridin-3-yl)-7-methylimidazo[1,2-a]pyridine]
40 | 1.82 | Fc1ccc(Cl)cc1-c1ncccc1-c1ccc2nccnc2n1 [compound 742, 6-(2-(5-Chloro-2-fluorophenyl)pyridin-3-yl)pyrido[2,3-b]pyrazine]
41 | 0.537 | Cc1cccc(-c2ncccc2-c2ccc3ncc(C(=O)NCCCN4CCCC4=O)n3c2)c1 [compound 724, N-(3-(2-Oxopyrrolidin-1-yl)propyl)-6-(2-(m-tolyl)pyridin-3-yl)imidazo[1,2-a]pyridine-3-carboxamide]
42 | 0.512 | FC(F)Oc1cccc(-c2ncccc2-c2ccn3ncnc3c2)c1 [compound 883, 7-(2-(3-(Difluoromethoxy)phenyl)pyridin-3-yl)-[1,2,4]triazolo[1,5-a]pyridine]
